Data on 28 compounds can be found in patent US12590062B2, “PD-1/PD-L1 inhibitors” (Gilead Sciences, Inc., priority 2017, dated 2026).

Test [1] concerns the target T1, PD-1/PD-L1 interaction (Homo sapiens, UniProt Q9NZQ7).
T1 construct: expressed in transfected cells; host or cells: CHO cells (aAPC-PD-L1) co-cultured with Jurkat cells overexpressing PD-1 and an NFAT-luciferase reporter
The test is described as follows: PD-1/PD-L1 NFAT reporter co-culture assay. Format: cell-based. As to conditions: Jurkat PD-1 NFAT-luciferase cells co-cultured with aAPC-PD-L1 CHO cells, 6 hrs at 37° C.; read-out: EC50 NFAT Luciferase. The method in brief: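 Restoration of TCR-driven NFAT luciferase signal: 6 h, 37 °C co-culture of PD-1 Jurkat reporter cells (pre-mixed with compound) on overnight-seeded PD-L1/anti-CD3 CHO monolayer. ONE-Glo luminescence; dose-response fitted to four-parameter equation for EC50.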

Test [2] concerns the target PD-1/PD-L1 (Homo sapiens, UniProt Q9NZQ7). Description: PD-1/PD-L1 biochemical protein-protein interaction assay (ALPHA). Format: binding. As to conditions: 0.3 nM His tagged PD-L1, 2.5 nM biotinylated Fc-PD-1, 60 minutes at 25° C., read-out: IC50 PD-L1-PD-1 Alpha IC50-mono PD-L1-fcP-D1. The method in brief: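 Bead proximity read-out: compound-driven loss of ALPHA signal between anti-His acceptor and streptavidin donor beads (20 μg/mL acceptor). Proteins: 0.3 nM His-PD-L1, 2.5 nM biotin-Fc-PD-1, final. 60 min, 25° C, Hepes pH 7.4 buffer. IC50 via four-parameter dose-response fit.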

Test [3] has as its target T2, PD-L1 (Homo sapiens, UniProt Q9NZQ7).
T2 construct: determine if they can specifically dimerize the extracellular domains of PD-L1
Description: PD-L1/PD-L1 dimerization biochemical protein-protein interaction assay (ALPHA). Format: binding. The conditions noted are these: compound-induced PD-L1 dimerization, head prints '1 nM' (0.5 nM His-tagged PD-L1 and 0.5 nM FLAG-tagged PD-L1), read-out: AC50 PDL1 Dimer Alpha 1 nM. The method in brief:
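After 2 h at 25 °C with compound, His- and FLAG-tagged PD-L1 ECDs (each 0.5 nM final; 25 mM Hepes pH 7.4, 150 mM NaCl) were detected by sequential anti-His acceptor and anti-FLAG donor bead incubations. Dose-response curves fitted to four-parameter equation for AC50.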

T1 sequence (Q9NZQ7 19-290): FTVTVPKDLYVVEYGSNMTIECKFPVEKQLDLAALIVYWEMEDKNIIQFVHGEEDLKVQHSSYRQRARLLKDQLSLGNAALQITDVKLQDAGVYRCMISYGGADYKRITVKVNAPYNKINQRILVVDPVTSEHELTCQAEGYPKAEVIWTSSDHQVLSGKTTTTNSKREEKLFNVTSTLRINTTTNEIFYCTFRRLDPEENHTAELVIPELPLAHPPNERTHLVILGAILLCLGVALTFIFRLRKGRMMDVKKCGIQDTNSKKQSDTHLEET
Sequence of PD-1/PD-L1 (Q9NZQ7 19-238 limits assumed): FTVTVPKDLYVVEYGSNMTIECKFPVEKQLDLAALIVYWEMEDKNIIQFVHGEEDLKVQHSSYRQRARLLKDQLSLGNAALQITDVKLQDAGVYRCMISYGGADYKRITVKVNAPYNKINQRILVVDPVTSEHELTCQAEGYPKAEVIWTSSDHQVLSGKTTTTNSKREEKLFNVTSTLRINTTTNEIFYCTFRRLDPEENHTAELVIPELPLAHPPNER
T2 sequence (Q9NZQ7 19-238 limits assumed): as above
T2 sequence (Q9NZQ7 19-238 limits assumed): as above

With `COc1nc(O[C@H]2CCc3c(-c4cccc(-c5ccc(CNC[C@@H]6CCC(=O)N6)c(F)c5)c4Cl)cccc32)c(Br)cc1CNC[C@@H]1CCC(=O)N1` [Example 790], in test [1], the EC50 (as a rule, the midpoint of the concentration-response curve) came out at 84 nM. Besides, the IC50 (as a rule, the midpoint of a concentration-inhibition curve) in test [2] is 0.865 nM. Moreover, the concentration at half-maximal activity (AC50) – broadly, the concentration at which the activity in the assay is half-maximal – in test [3] stood at 75.7 nM.
The matching figures for `COc1nc(-c2cc(F)cc(-c3cccc4c3CC[C@@H]4Oc3ccc(CNC[C@@H]4CCC(=O)N4)c(OCc4cncc(C#N)c4)n3)c2Cl)ccc1CNC[C@@H]1CCC(=O)N1` [Example 800]: 246 nM, 1.29 nM and 537 nM.
As for `Cc1c(COc2cc(OCc3cncc(C#N)c3)c(CNC[C@@H](O)CC(=O)O)cc2Cl)cccc1-c1cccc(-c2nc3ccc(CNC[C@@H](O)CC(=O)O)cn3n2)c1C` [Example 595], the 50% effective concentration (EC50) in test [1] turned out to be 65 nM. Moreover, the half-maximal inhibitory concentration (IC50) in test [2] was 0.064 nM. Besides, the concentration at half-maximal activity (AC50) in test [3] came out at 77 nM.
On the same counts, the results for `COc1nc(-c2cccc(-c3cccc(-c4ccc5c(c4)CCC(N)C5)c3Cl)c2Cl)ccc1CN1CC2(CCC(=O)N2)C1` (stereo not drawn) [Example 612] are ≥ 50000 nM, 2.45 nM and 729 nM.
On the same counts, the results for `CS(=O)(=O)c1cncc(COc2nc(OCc3cccc(-c4cccc(-c5ccc(OCCNCCO)cc5)c4Cl)c3Cl)c(Cl)cc2CNC[C@@H](O)CC(=O)O)c1` [Example 485] are 200 nM, 0.321 nM and 61.3 nM.
Consider `COc1nc(-c2cccc(-c3cccc4c3CC[C@@H]4Oc3nc(OC)c(CN4CCC[C@H](C(=O)O)[C@@H]4C)cc3Cl)c2Cl)ccc1CNC[C@@H]1CCC(=O)N1` [Example 764], for which, in test [1], the half-maximal effective concentration (EC50) turned out to be 23 nM. In addition, the 50% inhibitory concentration (IC50) in test [2] turned out to be 0.064 nM. Moreover, the concentration at half-maximal activity (AC50) in test [3] amounted to 31.9 nM.
Consider `COc1nc(-c2cccc(-c3cccc(-c4cnc5c(CNC[C@H]6CCC(=O)N6)cn(C)c5c4)c3Cl)c2Cl)ccc1CNC[C@H]1CCC(=O)N1` [Example 602], for which, in test [1], the concentration for a half-maximal effect (EC50) worked out at 242 nM. For the same compound, the half-inhibitory concentration (IC50) in test [2] turned out to be 0.236 nM. In addition, the AC50 in test [3] turned out to be 124 nM.
On the same counts, the results for `Cc1c(COc2cc(OCc3cncc(C#N)c3)c(CNC(C)(CO)C(=O)O)cc2Cl)cccc1-c1cccc(-c2ccc(CN3CC4(CNC4)C3)cc2)c1C` (stereo not drawn) [Example 451] are 472 nM, 0.104 nM and 105 nM.
On to `COc1cc(O[C@H]2CCc3c(-c4cccc(-c5ccc(CN6CC7(CCC(=O)N7)C6)c(OC)n5)c4Cl)cccc32)c(Cl)cc1CNC[C@@H]1CCC(=O)N1` [Example 796], for which, in test [1], the EC50 amounted to 151 nM. Also, the half-inhibitory concentration (IC50) in test [2] turned out to be 0.762 nM. The AC50 in test [3] turned out to be 228 nM.
On the same counts, the results for `COc1nc(-c2cccc(-c3cccc(-c4ccc5ncc(CN6CC(O)C6)n5c4)c3Cl)c2Cl)ccc1CN1CC(O)C1` [Example 615] are ≥ 50000 nM, 7.88 nM and ≥ 10000 nM.
In the case of `COc1nc(-c2cccc(-c3cccc(-c4ccc5[nH]cc(CN(C)C)c5c4)c3Cl)c2Cl)ccc1CNC[C@@H]1CCC(=O)N1` [Example 608], the 50% effective concentration (EC50) in test [1] was ≥ 50000 nM. Further, the half-inhibitory concentration (IC50) in test [2] is 1.72 nM. The AC50 in test [3] is 214 nM.
On the same counts, the results for `CN1CCCC1c1ccc(-c2cccc(-c3cccc4c3CC[C@@H]4Oc3nc(OCc4cncc(C#N)c4)c(CN[C@@](C)(CO)C(=O)O)cc3Cl)c2Cl)cc1` (stereo partly drawn) [Example 290, (2S)-2-(((5-chloro-6-(((1S)-4-(2-chloro-4′-(1-methylpyrrolidin-2-yl)-[1,1′-biphenyl]-3-yl)-2,3-dihydro-1H-inden-1-yl)oxy)-2-((5-cyanopyridin-3-yl)methoxy)pyridin-3-yl)methyl)amino)-3-hydroxy-2-methylpropanoic acid] are 311 nM, 0.068 nM and 25.1 nM.
Consider `COC(=O)[C@@](C)(CO)NCc1cc(Br)c(O[C@H]2CCc3c(-c4cccc(-c5ccc(CNC[C@@H]6CCC(=O)N6)c(OC)n5)c4Cl)cccc32)nc1OCc1cncc(C#N)c1` [Example 743], for which the EC50 in test [1] stood at 50 nM. Further, the IC50 in test [2] was 0.312 nM. The half-maximal activity concentration (AC50) in test [3] was 82.2 nM.
On the same counts, the results for `COc1nc(-c2cccc(-c3cccc(NC(=O)c4ccc(C5=NCCN5)cn4)c3C)c2Cl)ccc1C1=NCCN1` [Example 434] are 332 nM, 0.077 nM and 106 nM.
The matching figures for `CC(=O)NCCNCc1ccc(-c2cccc(-c3cccc(COc4cc(OCc5cncc(C#N)c5)c(CN[C@@](C)(CO)C(=O)O)cc4Cl)c3C)c2C)cc1` [Example 362, (S)-2-((4-((4″-(((2-acetamidoethyl)amino)methyl)-2,2′-dimethyl-[1,1′:3′,1″-terphenyl]-3-yl)methoxy)-5-chloro-2-((5-cyanopyridin-3-yl)methoxy)benzyl)amino)-3-hydroxy-2-methylpropanoic acid]: 221 nM, 0.104 nM and 108 nM.
Take `COc1nc(-c2cccc(-c3cccc4c3CC[C@@H]4Oc3nc(OCc4cncc(C#N)c4)c(CN[C@@](C)(CO)C(=O)O)cc3Br)c2C)ccc1C1=NCCN1` [Example 748]: in test [1], the concentration giving a half-maximal response (EC50) came to 24 nM. Moreover, the IC50 in test [2] was 0.064 nM. Also, the AC50 in test [3] was 10.1 nM.
Consider `Cn1cc(CN2CC3(CNC(=O)C3)C2)c2ncc(-c3cccc(-c4cccc(-c5cnc6c(CN7CC8(CNC(=O)C8)C7)cn(C)c6n5)c4Cl)c3Cl)nc21` [Example 588], for which the EC50 in test [1] worked out at 50 nM. In addition, in test [2], the IC50 is 0.081 nM. Also, in test [3], the half-maximal activity concentration (AC50) was 206 nM.
On the same counts, the results for `COc1nc(-c2cccc(-c3cccc4c3CC[C@@H]4Oc3nc(OC)c(CN4CCC(C)(C(=O)O)C4)cc3Cl)c2Cl)ccc1CNC[C@@H]1CCC(=O)N1` (stereo partly drawn) [Example 763] are 10 nM, 0.064 nM and 11.3 nM.
With `Cc1c(COc2cc(OCc3cncc(C#N)c3)c(CNC[C@@H](O)CC(=O)O)cc2Cl)cccc1-c1cccc(-c2ccc(C3=NCCN3)c(OCCCC#N)n2)c1C` [Example 466], the 50% effective concentration (EC50) in test [1] is 93 nM. In addition, the IC50 in test [2] stood at 0.064 nM. In addition, the concentration at half-maximal activity (AC50) in test [3] was 44.1 nM.
On the same counts, the results for `COc1nc(O[C@H]2CCc3c(-c4cccc(-c5ccc(CNC[C@@H]6CCC(=O)N6)c(Cl)c5)c4Cl)cccc32)c(Br)cc1CNC[C@@H]1CCC(=O)N1` [Example 791] are 175 nM, 2.84 nM and 206 nM.
Consider `COc1cc(-c2cccc(-c3cccc4c3CC[C@@H]4Oc3nc(OC)c(CNC[C@@H]4CCC(=O)N4)cc3Br)c2Cl)ccc1CNC[C@@H]1CCC(=O)N1` [Example 792], for which the EC50 in test [1] turned out to be 40 nM. Also, in test [2], the half-inhibitory concentration (IC50) is 0.534 nM. Moreover, the concentration at half-maximal activity (AC50) in test [3] amounted to 22.7 nM.
On the same counts, the results for `C[C@@](CO)(NCc1cc(Cl)c(O[C@H]2CCc3c(-c4cccc(-c5ccc(OCCNCCO)cc5)c4Cl)cccc32)nc1OCc1cncc(S(C)(=O)=O)c1)C(=O)O` [Example 660] are 107 nM, 0.064 nM and 15.2 nM.
For `Cc1c(COc2cc(OCc3cncc(C#N)c3)c(CNC[C@@H](O)CC(=O)O)cc2Cl)cccc1-c1cccc(Nc2nccc3cc(CNCCO)cnc23)c1C` [Example 438], the 50% effective concentration (EC50) in test [1] is 222 nM. The concentration for half-maximal inhibition (IC50) in test [2] came to 0.476 nM. For the same compound, in test [3], the AC50 was found to be 168 nM.
On the same counts, the results for `CNCc1cc(Cl)c(O[C@H]2CCc3c(-c4cccc(-c5ccc(OCCN6CC[C@@H](O)C6)cc5)c4Cl)cccc32)nc1OCc1cncc(S(C)(=O)=O)c1` [Example 664] are ≥ 50000 nM, 2.6 nM and ≥ 10000 nM.
The matching figures for `Cc1c(-c2ccc(CN3CC[C@@H](O)C3)cc2)cccc1-c1cccc(-c2ccc(CNC[C@@H](O)CC(=O)O)c(OCCCC#N)c2)c1C` [Example 324, (S)-4-(((3-(3-cyanopropoxy)-4′″-(((R)-3-hydroxypyrrolidin-1-yl)methyl)-2′,2″-dimethyl-[1,1′:3′,1″:3″,1′″-quaterphenyl]-4-yl)methyl)amino)-3-hydroxybutanoic acid]: 894 nM, 0.505 nM and 1020 nM.
The matching figures for `COc1nc(-c2ccc(-c3cccc(-c4ccc(CNC[C@@H]5CCC(=O)N5)c(OC)n4)c3Cl)s2)ccc1CNC[C@@H]1CCC(=O)N1` [Example 601]: 748 nM, 5.27 nM and 1130 nM.
Turning to `Cc1c(COc2cc(OCc3cncc(C#N)c3)c(CNC(C)(CO)C(=O)O)cc2Cl)cccc1-c1cccc(-c2ccc(CN3CCC4(CC3)CNC4=O)cc2)c1C` (stereo not drawn) [Example 443], the EC50 in test [1] turned out to be 276 nM. For the same compound, the half-maximal inhibitory concentration (IC50) in test [2] was 0.064 nM. Further, the half-maximal activity concentration (AC50) in test [3] was 154 nM.
In the case of `COc1nc(-c2cccc(-c3cccc4c3CC[C@@H]4Oc3nc(OC)c(CN4CCC[C@H](C(=O)O)C4)cc3Cl)c2Cl)ccc1CNC[C@@H]1CCC(=O)N1` [Example 759], the EC50 in test [1] turned out to be 16 nM. In test [2], the 50% inhibitory concentration (IC50) is 0.064 nM. Besides, the concentration at half-maximal activity (AC50) in test [3] was determined as 18.9 nM.
